In PubChem BioAssay AID602210 (Sanford-Burnham Center for Chemical Genomics, 2012):
Active and inactive are the calls of the source. No rule for the calls is given here.

Assay: modulators of 2-deoxyglucose-induced H9c2 death, dose response, myocardial damage modulator project, cell-based, ATPlite luminescence, rat, set 2 (AID 602210)
Details: H9c2 rat cardiomyoblasts, 2-deoxyglucose-induced death, 2 h

Structure (SMILES) | IC50
O=C(NC1CCCCC1)C(c1ccc2ncccc2c1)N(Cc1ccccc1)C(=O)c1ccc2c(c1)OCCO2 (stereo not given) | 29.4 µM (inactive)
COc1cccc(C(=O)Nc2c(C(N)=O)oc3ccccc23)c1 | 15.1 µM (inactive)
COc1cccc(Nc2nc(-c3sc(NC(=O)c4ccco4)nc3C)cs2)c1 | 9.04 µM
c1cc2[nH]snc2c2nc(C3CC3)nc12 | 10.6 µM (inactive)
COc1ccc(Cl)cc1NC(=O)CCS(=O)(=O)c1cc2c(cc1C)NC(=O)CO2 | 26 µM (inactive)
CCOC(=O)c1ccc(-c2ccc3ncnc(NCc4csc(C)n4)c3c2)o1 | > 79 µM (inactive)
COc1cc(/C=N\NC(=O)c2cccnc2)ccc1OC(=O)c1ccccc1Cl | > 79 µM (inactive)
COc1ccc(C(C(=O)NCc2ccccc2)N(Cc2cccs2)C(=O)c2cnccn2)cc1 (stereo not given) | 23 µM (inactive)
CC(C)CCN(C(=O)CNC(=O)c1ccco1)C(C(=O)NC1CCCCC1)c1ccco1 (stereo not given) | > 79 µM (inactive)
COc1ccc(-c2cc3nc(-c4ccccc4)cc(N4CCN(C(C)=O)CC4)n3n2)cc1 | 16.1 µM (inactive)
CCOC(=O)c1cnc(Nc2nc3ccccc3o2)nc1CSc1nnc(C)s1 | 27.3 µM (inactive)
CC(C)(C)NC(=O)COC(=O)c1c2c(nc3ccccc13)CCC2 | 16.7 µM (inactive)
CCc1nnc(NC(=O)CCC(=O)N2CCN(C3c4ccccc4-c4ccccc43)CC2)s1 | 29.1 µM (inactive)
COc1ccccc1CN(C)C(=O)c1cc(-c2cc(OC)c(OC)c(OC)c2)nc2ccccc12 | 10.4 µM (inactive)
CC(=O)c1ccc(N2CCN(C(=O)C3CCCN(c4ncnc5c4nc4n5CCCCC4)C3)CC2)cc1 (stereo not given) | 25.6 µM (inactive)
CC(=O)c1ccc(-c2cnc3c(NC=O)cc(-c4cccc(C(=O)N(C)C)c4)cn23)cc1 | 12.2 µM (inactive)
COc1cc(/C=C/C(=O)Nc2ccc3nc4n(c(=O)c3c2)CCCC4)cc(OC)c1OC | 20.6 µM (inactive)
Cc1ccc2nsnc2c1S(=O)(=O)N(Cc1ccco1)Cc1cc2cccc(C)c2[nH]c1=O | > 79 µM (inactive)
COc1ccc(-c2oc(=O)c3cc(OC)c(OC)cc3c2C#CCCO)cc1 | 21.7 µM (inactive)
COc1ccc(-c2cc(C(=O)NNC(=O)c3csc(N4CCOCC4)n3)c3ccccc3n2)cc1 | 7.31 µM
CCOC(=O)c1c(C)[nH]c(O)c1C=Nc1ccc(Cl)cc1 | 46.7 µM (inactive)
CN1CCc2nc3ccccc3c(C(=O)OCC(=O)N(CCC#N)c3ccccc3)c2C1 | > 79 µM (inactive)
COc1ccc(-c2cc(C(=O)N(C)Cc3ccccc3F)c3ccccc3n2)cc1OC | 13.5 µM (inactive)

Structure (SMILES) | IC50
Cc1cccc(NC(=O)c2oc3ccc(S(=O)(=O)N4CCOCC4)cc3c2C)c1C | 11 µM (inactive)
c1ccc(-c2nc(-n3ccnc3)nc(-n3ccnc3)n2)cc1 | 9.07 µM
COc1cc(CCNc2ccc3nnc(-c4ccccc4)n3n2)cc(OC)c1OC | 30.6 µM (inactive)
NC(=O)c1cccc(-c2coc3c(C(=O)NCCc4ccccc4)cccc23)c1 | 13.3 µM (inactive)
COc1cc(-c2cc(C(=O)NCc3ccco3)c3ccccc3n2)cc(OC)c1OC | 16.4 µM (inactive)
Cc1ccccc1C(C(=O)NCc1ccccc1)N(Cc1ccco1)C(=O)c1ccccn1 (stereo not given) | 45.6 µM (inactive)
COc1cc(NC(=O)c2cc([N+](=O)[O-])ccc2NC(=O)CN2CCN(c3ccccn3)CC2)cc(OC)c1 | > 79 µM (inactive)
COc1ccccc1NC(=O)CSc1ccc2nnc(-c3ccc(C)cc3)n2n1 | > 79 µM (inactive)
COc1cc(-c2nnc(-c3cc(-c4ccccc4)nc4ccccc34)o2)cc(OC)c1OC | 7.22 µM
CN(C)C(=O)/C=C\c1cn(-c2ccccc2)nc1-c1ccc2c(c1)OCCO2 | 29.4 µM (inactive)
COc1cccc(-c2cnc3c(NC=O)cc(-c4cccc(NC(C)=O)c4)cn23)c1 | 6.84 µM
COc1cccc(CN2CCN(C(=O)c3cc(-c4cccnc4)nc4ccc(C)cc34)CC2)c1 | 48.8 µM (inactive)
O=C(Nc1cc(S(=O)(=O)N2CCOCC2)ccc1N1CCCCC1)c1cc(-c2ccccn2)nc2ccccc12 | 14.6 µM (inactive)
CNC(=O)c1ccc(-c2sc3nc(N4CCOCC4)c4c(c3c2N)CCCC4)o1 | > 79 µM (inactive)
CC(=O)Nc1cccc(-c2cc(NC=O)c3ncc(-c4ccc(C(C)=O)cc4)n3c2)c1 | 13.6 µM (inactive)
CCOc1ccccc1N1CC(O)=C(c2nc3ccccc3s2)C1=N | 13.8 µM (inactive)
COc1ccc(CCNC(=O)c2cc3c(C)nccc3[nH]c2=O)cc1OC | 20.7 µM (inactive)
CNC(=O)c1ccc(-c2sc3nc(N4CCOCC4)c4c(c3c2N)CC(C)(C)OC4)o1 | 21.3 µM (inactive)
COc1ccc(OCC(O)Cn2c(Nc3cccc(C)c3)nc3c2c(=O)n(C)c(=O)n3C)cc1 (stereo not given) | 34 µM (inactive)
Cc1nn(-c2ccccc2)nc1C(=O)Nc1cccc(C(=O)NC2CC2)c1 | 18.6 µM (inactive)
COc1ccc(-c2nc(NC(=O)c3ccc(OCC(=O)N4CCOCC4)c(OC)c3)sc2C)cc1 | 23.7 µM (inactive)
CC1CN(c2nn3c(=O)c4ccccc4nc3c3ccccc23)CC(C)O1 (stereo not given) | > 79 µM (inactive)
